Experimental data taken from article PMC5845541, “Novel Sodium Channel Inhibitor From Leeches” (Frontiers in Pharmacology, 2018).
Positions of bridges follow the written chain, without caps; N, C: chain ends. Residues, ends and D or L forms follow the SMILES beside them.

Tests used:
mNaV1.9 (mouse NaV1.9) = biological target: T1, mNaV1.9 (mouse NaV1.9) (Mus musculus, UniProt Q9R053); assay: cell-based; settings: NaV1.8-null mouse small DRG neurons, 300 nM TTX; 100-ms step to –40 mV from holding potential –110 mV; variable slope fit; room temperature; mean ± SEM; read-out: IC50 for inhibition of mNaV1.9 currents
T1 construct: Representative current traces of mNaV1.9, recorded from the NaV1.8-null mouse small DRG neurons; endogenous in cells; host or cells: small DRG neurons of NaV1.8-null mice
T1 sequence (Q9R053 whole entry): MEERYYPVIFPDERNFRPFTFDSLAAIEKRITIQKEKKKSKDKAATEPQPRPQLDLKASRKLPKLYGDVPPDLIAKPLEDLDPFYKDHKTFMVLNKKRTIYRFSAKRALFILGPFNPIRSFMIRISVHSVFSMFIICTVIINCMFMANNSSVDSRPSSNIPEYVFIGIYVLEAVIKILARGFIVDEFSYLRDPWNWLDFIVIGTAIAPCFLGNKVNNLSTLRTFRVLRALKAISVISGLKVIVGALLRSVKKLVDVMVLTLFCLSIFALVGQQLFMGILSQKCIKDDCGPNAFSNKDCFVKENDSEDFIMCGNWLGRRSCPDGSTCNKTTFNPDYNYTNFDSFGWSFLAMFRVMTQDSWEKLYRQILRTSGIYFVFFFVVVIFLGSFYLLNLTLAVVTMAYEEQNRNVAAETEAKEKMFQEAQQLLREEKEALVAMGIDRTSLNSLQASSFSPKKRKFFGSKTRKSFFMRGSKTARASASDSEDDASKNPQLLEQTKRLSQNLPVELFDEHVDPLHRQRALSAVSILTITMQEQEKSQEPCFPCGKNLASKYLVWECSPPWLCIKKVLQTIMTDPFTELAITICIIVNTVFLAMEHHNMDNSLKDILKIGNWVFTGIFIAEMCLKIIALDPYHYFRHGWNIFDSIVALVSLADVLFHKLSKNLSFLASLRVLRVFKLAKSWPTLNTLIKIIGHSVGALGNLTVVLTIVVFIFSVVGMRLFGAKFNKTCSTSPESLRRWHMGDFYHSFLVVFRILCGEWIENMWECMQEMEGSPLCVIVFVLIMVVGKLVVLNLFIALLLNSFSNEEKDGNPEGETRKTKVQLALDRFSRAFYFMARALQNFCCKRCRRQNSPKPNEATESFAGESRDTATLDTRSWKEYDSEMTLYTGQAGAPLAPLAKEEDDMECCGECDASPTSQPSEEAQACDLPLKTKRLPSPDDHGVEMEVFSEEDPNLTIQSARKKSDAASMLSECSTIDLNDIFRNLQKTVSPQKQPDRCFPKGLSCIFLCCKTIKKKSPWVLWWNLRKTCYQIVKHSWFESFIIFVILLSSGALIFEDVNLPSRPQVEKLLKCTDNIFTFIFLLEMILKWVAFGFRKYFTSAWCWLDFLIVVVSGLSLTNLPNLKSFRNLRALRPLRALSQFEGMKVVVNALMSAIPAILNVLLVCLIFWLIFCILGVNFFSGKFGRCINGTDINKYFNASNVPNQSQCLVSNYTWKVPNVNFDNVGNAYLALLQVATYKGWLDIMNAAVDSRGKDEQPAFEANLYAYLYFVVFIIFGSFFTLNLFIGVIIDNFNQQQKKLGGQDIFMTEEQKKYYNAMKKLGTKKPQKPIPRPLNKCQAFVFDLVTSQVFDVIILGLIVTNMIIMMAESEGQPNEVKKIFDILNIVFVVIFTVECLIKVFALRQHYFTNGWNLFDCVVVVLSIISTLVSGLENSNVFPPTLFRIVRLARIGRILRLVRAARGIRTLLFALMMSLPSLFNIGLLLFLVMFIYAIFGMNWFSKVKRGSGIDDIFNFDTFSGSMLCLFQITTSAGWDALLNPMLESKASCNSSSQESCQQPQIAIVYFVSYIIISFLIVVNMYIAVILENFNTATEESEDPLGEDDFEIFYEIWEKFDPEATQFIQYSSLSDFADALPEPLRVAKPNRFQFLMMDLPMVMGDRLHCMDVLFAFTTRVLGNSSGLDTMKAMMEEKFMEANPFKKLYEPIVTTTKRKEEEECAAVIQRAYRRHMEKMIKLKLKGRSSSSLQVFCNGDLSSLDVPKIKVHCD

rNaV1.8 (rat NaV1.8) = rNaV1.8 (rat NaV1.8) (Rattus norvegicus, UniProt Q62968); assay: cell-based
rNaV1.8 (rat NaV1.8), sequence (Q62968 whole entry): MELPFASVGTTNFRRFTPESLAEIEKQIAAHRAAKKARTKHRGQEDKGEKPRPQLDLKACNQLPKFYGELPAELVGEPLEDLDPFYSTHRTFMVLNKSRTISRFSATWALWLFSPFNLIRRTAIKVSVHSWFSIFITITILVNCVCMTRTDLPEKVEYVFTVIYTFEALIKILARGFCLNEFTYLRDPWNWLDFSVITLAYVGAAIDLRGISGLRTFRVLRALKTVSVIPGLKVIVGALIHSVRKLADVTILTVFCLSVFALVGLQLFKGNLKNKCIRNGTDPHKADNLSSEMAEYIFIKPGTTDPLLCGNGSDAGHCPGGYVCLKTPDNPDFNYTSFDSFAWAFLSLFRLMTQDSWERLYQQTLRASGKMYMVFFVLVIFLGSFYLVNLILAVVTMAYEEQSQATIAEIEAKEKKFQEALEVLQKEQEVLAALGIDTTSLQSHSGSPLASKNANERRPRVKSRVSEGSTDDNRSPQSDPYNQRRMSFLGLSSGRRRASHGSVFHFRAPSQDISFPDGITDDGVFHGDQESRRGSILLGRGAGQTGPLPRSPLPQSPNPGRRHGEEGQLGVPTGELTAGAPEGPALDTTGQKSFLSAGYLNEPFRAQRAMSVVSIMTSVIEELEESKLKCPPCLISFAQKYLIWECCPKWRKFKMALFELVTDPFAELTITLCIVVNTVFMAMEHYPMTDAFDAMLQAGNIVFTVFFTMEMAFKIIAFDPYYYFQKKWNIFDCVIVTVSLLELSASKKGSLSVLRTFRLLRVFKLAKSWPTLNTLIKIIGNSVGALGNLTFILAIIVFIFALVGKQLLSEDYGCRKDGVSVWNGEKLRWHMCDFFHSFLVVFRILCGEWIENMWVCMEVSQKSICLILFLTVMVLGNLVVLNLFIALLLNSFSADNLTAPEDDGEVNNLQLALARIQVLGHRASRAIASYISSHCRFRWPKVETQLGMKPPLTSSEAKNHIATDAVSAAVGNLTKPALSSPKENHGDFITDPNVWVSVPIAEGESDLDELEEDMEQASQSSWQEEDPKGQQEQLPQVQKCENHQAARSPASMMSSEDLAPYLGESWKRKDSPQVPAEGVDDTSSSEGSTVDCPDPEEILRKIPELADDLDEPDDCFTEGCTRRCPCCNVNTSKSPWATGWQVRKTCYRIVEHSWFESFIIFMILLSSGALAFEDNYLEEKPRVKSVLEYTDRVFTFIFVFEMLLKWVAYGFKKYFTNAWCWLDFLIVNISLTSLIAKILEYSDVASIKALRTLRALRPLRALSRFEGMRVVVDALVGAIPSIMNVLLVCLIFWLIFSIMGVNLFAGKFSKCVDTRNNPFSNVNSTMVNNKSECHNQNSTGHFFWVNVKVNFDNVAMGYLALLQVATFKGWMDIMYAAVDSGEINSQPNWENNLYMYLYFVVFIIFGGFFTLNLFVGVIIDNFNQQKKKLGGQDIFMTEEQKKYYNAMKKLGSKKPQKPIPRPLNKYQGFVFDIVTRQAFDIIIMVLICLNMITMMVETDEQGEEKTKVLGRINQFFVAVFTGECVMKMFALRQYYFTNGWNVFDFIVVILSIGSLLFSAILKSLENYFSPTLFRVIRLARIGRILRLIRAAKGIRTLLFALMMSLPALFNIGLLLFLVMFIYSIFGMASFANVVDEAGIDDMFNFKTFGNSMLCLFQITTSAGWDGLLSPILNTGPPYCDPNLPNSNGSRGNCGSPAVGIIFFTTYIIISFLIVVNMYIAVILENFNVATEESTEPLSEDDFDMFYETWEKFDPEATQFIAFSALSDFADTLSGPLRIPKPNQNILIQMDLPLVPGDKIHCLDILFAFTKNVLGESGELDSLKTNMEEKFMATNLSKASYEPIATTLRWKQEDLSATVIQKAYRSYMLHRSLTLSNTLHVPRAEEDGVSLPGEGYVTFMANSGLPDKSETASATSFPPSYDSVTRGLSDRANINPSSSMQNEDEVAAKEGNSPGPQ

Compound: CC[C@H](C)[C@H](NC(=O)[C@H](CCSC)NC(=O)[C@@H]1CCCN1C(=O)[C@@H](NC(=O)[C@@H]1CSSC[C@@H]2NC(=O)[C@H](CCC(=O)O)NC(=O)[C@H](Cc3c[nH]c4ccccc34)NC(=O)[C@H](Cc3ccc(O)cc3)NC(=O)[C@H](CCC(=O)O)NC(=O)[C@H](CCCCN)NC(=O)[C@@H](NC(=O)[C@H](C)N)CSSC[C@H](NC(=O)[C@H](Cc3ccccc3)NC(=O)[C@H](CC(C)C)NC(=O)[C@H](Cc3ccccc3)NC(=O)[C@H](C)NC(=O)CNC2=O)C(=O)N[C@@H]([C@@H](C)CC)C(=O)N[C@@H](CCC(=O)O)C(=O)NCC(=O)N[C@@H]([C@@H](C)CC)C(=O)N1)C(C)C)C(N)=O [HSTX-I] (H-ACKEYWECGAFLFCIEGICVPMI-NH2; disulfide 2-14, 8-19)
- IC50 (mNaV1.9 (mouse NaV1.9)): ~3.3 µM
- IC50 (rNaV1.8 (rat NaV1.8)): ~2.44 µM
